# Data: BindingDB's records for doi:10.1021/jm980032l (Wake Forest University School of Medicine, 1998)
# Molecular target: Sigma non-opioid intracellular receptor 1 (Cavia porcellus) (UniProt Q60492)
# Experiment: Compound tested for binding affinity towards sigma 1 receptor in quinea pig brain membranes using [3H](+)-pentazocine as the radioligand.
# Sigma non-opioid intracellular receptor 1 (Cavia porcellus), sequence (Q60492 whole entry, looked up): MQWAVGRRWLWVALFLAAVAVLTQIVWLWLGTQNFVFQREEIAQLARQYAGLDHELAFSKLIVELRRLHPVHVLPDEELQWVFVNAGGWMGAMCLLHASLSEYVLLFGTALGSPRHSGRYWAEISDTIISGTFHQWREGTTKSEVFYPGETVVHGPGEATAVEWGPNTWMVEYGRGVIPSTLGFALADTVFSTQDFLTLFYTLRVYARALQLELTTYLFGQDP
row,SMILES,Ki
1,"O=C(Cc1ccc(O)c(O)c1)NC1CCN(Cc2ccccc2)CC1 [N-(1-Benzyl-piperidin-4-yl)-2-(3,4-dihydroxy-phenyl)-acetamide]",> 1000 nM

# Molecular target: Sigma non-opioid intracellular receptor 1 (Cavia porcellus) (UniProt Q60492)
# Experiment: Binding affinity against sigma-1 receptor in guinea pig brain membranes using [3H](+)-pentazocine as the radioligand
row,SMILES,Ki
1,CSc1ccc(CC(=O)NC2CCN(Cc3ccccc3)CC2)cc1 [N-(1-Benzyl-piperidin-4-yl)-2-(4-methylsulfanyl-phenyl)-acetamide],27.1 nM
2,"O=C(Cc1cc(F)ccc1F)NC1CCN(Cc2ccccc2)CC1 [N-(1-Benzyl-piperidin-4-yl)-2-(2,5-difluoro-phenyl)-acetamide]",4.21 nM
3,O=C(Cc1ccccc1Cl)NC1CCN(Cc2ccccc2)CC1 [N-(1-Benzyl-piperidin-4-yl)-2-(2-chloro-phenyl)-acetamide],3.08 nM
4,"COc1ccc(CC(=O)NC2CCN(Cc3ccccc3)CC2)cc1OC [N-(1-Benzyl-piperidin-4-yl)-2-(3,4-dimethoxy-phenyl)-acetamide]",352 nM
5,O=C(Cc1ccccc1[N+](=O)[O-])NC1CCN(Cc2ccccc2)CC1 [N-(1-Benzyl-piperidin-4-yl)-2-(2-nitro-phenyl)-acetamide],26.9 nM
6,"O=C(Cc1c(F)cccc1F)NC1CCN(Cc2ccccc2)CC1 [N-(1-Benzyl-piperidin-4-yl)-2-(2,6-difluoro-phenyl)-acetamide]",5.8 nM
7,O=C(Cc1ccc(O)c(Cl)c1)NC1CCN(Cc2ccccc2)CC1 [N-(1-Benzyl-piperidin-4-yl)-2-(3-chloro-4-hydroxy-phenyl)-acetamide],23.8 nM
8,COc1ccc(CC(=O)NC2CCN(Cc3ccccc3)CC2)cc1 [N-(1-Benzyl-piperidin-4-yl)-2-(4-methoxy-phenyl)-acetamide],66.4 nM
9,"O=C(Cc1c(Cl)cccc1Cl)NC1CCN(Cc2ccccc2)CC1 [N-(1-Benzyl-piperidin-4-yl)-2-(2,6-dichloro-phenyl)-acetamide]",7.28 nM
10,CSc1ccc(NC(=O)NC2CCN(Cc3ccccc3)CC2)cc1 [1-(1-Benzyl-piperidin-4-yl)-3-(4-methylsulfanyl-phenyl)-urea],63.9 nM
11,O=C(Cc1cccc(O)c1)NC1CCN(Cc2ccccc2)CC1 [N-(1-Benzyl-piperidin-4-yl)-2-(3-hydroxy-phenyl)-acetamide],110 nM
12,Nc1ccc(CC(=O)NC2CCN(Cc3ccccc3)CC2)cc1 [2-(4-Amino-phenyl)-N-(1-benzyl-piperidin-4-yl)-acetamide],470 nM
13,"COc1cc(CC(=O)NC2CCN(Cc3ccccc3)CC2)cc(OC)c1 [N-(1-Benzyl-piperidin-4-yl)-2-(3,5-dimethoxy-phenyl)-acetamide]",121 nM
14,O=C(Cc1ccccc1C(F)(F)F)NC1CCN(Cc2ccccc2)CC1 [N-(1-Benzyl-piperidin-4-yl)-2-(2-trifluoromethyl-phenyl)-acetamide],8.7 nM
15,O=C(Cc1cccc(Cl)c1)NC1CCN(Cc2ccccc2)CC1 [N-(1-Benzyl-piperidin-4-yl)-2-(3-chloro-phenyl)-acetamide],1.4 nM
16,O=C(Cc1cccc(C(F)(F)F)c1)NC1CCN(Cc2ccccc2)CC1 [N-(1-Benzyl-piperidin-4-yl)-2-(3-trifluoromethyl-phenyl)-acetamide],3.92 nM
17,"COc1ccc(OC)c(CC(=O)NC2CCN(Cc3ccccc3)CC2)c1 [N-(1-Benzyl-piperidin-4-yl)-2-(2,5-dimethoxy-phenyl)-acetamide]",43.4 nM
18,COc1ccccc1CC(=O)NC1CCN(Cc2ccccc2)CC1 [N-(1-Benzyl-piperidin-4-yl)-2-(2-methoxy-phenyl)-acetamide],30.8 nM
19,"O=C(Cc1ccc([N+](=O)[O-])cc1[N+](=O)[O-])NC1CCN(Cc2ccccc2)CC1 [N-(1-Benzyl-piperidin-4-yl)-2-(2,4-dinitro-phenyl)-acetamide]",14.2 nM
20,O=C(Cc1cccc([N+](=O)[O-])c1)NC1CCN(Cc2ccccc2)CC1 [N-(1-Benzyl-piperidin-4-yl)-2-(3-nitro-phenyl)-acetamide],4.56 nM

row,SMILES,Ki
1,O=C(Cc1ccc(Cl)cc1)NC1CCN(Cc2ccccc2)CC1 [N-(1-Benzyl-piperidin-4-yl)-2-(4-chloro-phenyl)-acetamide],6.46 nM
2,O=C(Cc1ccc(O)cc1)NC1CCN(Cc2ccccc2)CC1 [N-(1-Benzyl-piperidin-4-yl)-2-(4-hydroxy-phenyl)-acetamide],286 nM
3,"O=C(Cc1ccc(Cl)cc1Cl)NC1CCN(Cc2ccccc2)CC1 [N-(1-Benzyl-piperidin-4-yl)-2-(2,4-dichloro-phenyl)-acetamide]",9.66 nM
4,O=C(Cc1ccc(F)cc1)NC1CCN(Cc2ccccc2)CC1 [N-(1-Benzyl-piperidin-4-yl)-2-(4-fluoro-phenyl)-acetamide],3.43 nM
5,O=C(Cc1ccccc1Br)NC1CCN(Cc2ccccc2)CC1 [N-(1-Benzyl-piperidin-4-yl)-2-(2-bromo-phenyl)-acetamide],2.89 nM
6,COc1cccc(CC(=O)NC2CCN(Cc3ccccc3)CC2)c1 [N-(1-Benzyl-piperidin-4-yl)-2-(3-methoxy-phenyl)-acetamide],10.5 nM
7,O=C(Cc1cccc(F)c1)NC1CCN(Cc2ccccc2)CC1 [N-(1-Benzyl-piperidin-4-yl)-2-(3-fluoro-phenyl)-acetamide],2.45 nM
8,O=C(Cc1ccc(C(F)(F)F)cc1)NC1CCN(Cc2ccccc2)CC1 [N-(1-Benzyl-piperidin-4-yl)-2-(4-trifluoromethyl-phenyl)-acetamide],9.84 nM
9,"O=C(Cc1ccc(Cl)c(Cl)c1)NC1CCN(Cc2ccccc2)CC1 [N-(1-Benzyl-piperidin-4-yl)-2-(3,4-dichloro-phenyl)-acetamide]",5.22 nM
10,"COc1ccc(NC(=O)NC2CCN(Cc3ccccc3)CC2)c(OC)c1 [1-(1-Benzyl-piperidin-4-yl)-3-(2,4-dimethoxy-phenyl)-urea]",30.1 nM
11,O=C(Cc1cccc(Br)c1)NC1CCN(Cc2ccccc2)CC1 [N-(1-Benzyl-piperidin-4-yl)-2-(3-bromo-phenyl)-acetamide],0.87 nM
12,O=C(Cc1ccccc1O)NC1CCN(Cc2ccccc2)CC1 [N-(1-Benzyl-piperidin-4-yl)-2-(2-hydroxy-phenyl)-acetamide],18.8 nM
13,"O=C(Cc1ccc(F)cc1F)NC1CCN(Cc2ccccc2)CC1 [N-(1-Benzyl-piperidin-4-yl)-2-(2,4-difluoro-phenyl)-acetamide]",3.87 nM
14,O=C(Cc1ccc([N+](=O)[O-])cc1)NC1CCN(Cc2ccccc2)CC1 [N-(1-Benzyl-piperidin-4-yl)-2-(4-nitro-phenyl)-acetamide],18 nM
15,"COc1cc(CC(=O)NC2CCN(Cc3ccccc3)CC2)cc(OC)c1OC [N-(1-Benzyl-piperidin-4-yl)-2-(3,4,5-trimethoxy-phenyl)-acetamide]",80 nM
16,"O=C(Cc1ccc(F)c(F)c1)NC1CCN(Cc2ccccc2)CC1 [N-(1-Benzyl-piperidin-4-yl)-2-(3,4-difluoro-phenyl)-acetamide]",3.17 nM
17,"O=C(Cc1ccc2c(c1)OCO2)NC1CCN(Cc2ccccc2)CC1 [2-Benzo[1,3]dioxol-5-yl-N-(1-benzyl-piperidin-4-yl)-acetamide]",7.32 nM
18,"O=C(Cc1cc(F)cc(F)c1)NC1CCN(Cc2ccccc2)CC1 [N-(1-Benzyl-piperidin-4-yl)-2-(3,5-difluoro-phenyl)-acetamide]",7.63 nM
19,"COc1cccc(C(O)CNC2CCN(Cc3ccccc3)CC2)c1OC (stereo not given) [2-(1-Benzyl-piperidin-4-ylamino)-1-(2,3-dimethoxy-phenyl)-ethanol]",32.1 nM
